Reference: patent US5098708A
≈ marks a conversion by molar mass, not a printed value. Read-outs that look alike come from different tables or passages of the source.

Experiments:
[1] = test system: human immunodeficiency virus (LAVBRU strain); assay: Anti-HIV XTT assay in CEM-SS cells; assay type: cell-based; settings: Human immunodeficiency virus 1, 144 h, six days post infection, read-out: ED50 (XTT assay)
Description: The antiviral effect is expressed as the concentration of compound which increases the number of viable cells in infected cultures to 50% that of the untreated, uninfected control cultures (ED50) The cellular toxicity is expressed as the concentration of compound which reduces the number of viable cells to 50% that of the untreated control (TD50).

[2] = Cellular toxicity in CEM-SS cells (XTT assay); assay type: cell-based; settings: human
Excerpt: CEM-SS cells were obtained from Owen Weislow at the National Cancer Institute.

uninfected CEM cells = settings: human, 7200 min
Description: The cells and the virus were grown in LAV/CEM medium. The medium consists of RPMI 1640, supplemented with 1% L-glutamine, 100 U/ml of Penicillin, 100 μg/ml Streptomycin, 2 μg/ml Polybrene and 10% heat-inactivated fetal bovine serum (HyClone Labs).
The toxicities of the drugs were tested against uninfected CEM cells. The CEM cells were plated as described above, and culture for five days in the presence or absence of drugs. On day five 1 μCi/well of ^3 H-thymidine was added, and cells were harvested 3 hours later. The results are expressed as toxic dose 50 (TD50) and represent the amount of drug necessary to reduce the cell proliferation by 50% as measured through thymidine incorporation.

[3] = test system: herpes simplex virus type 1 (HSV-1); assay: microbe, parasite or virus in culture; assay type: cell-based; settings: for ID50 HSV-Vero cell: Table 8, 72 hours incubation, 50% inhibition of cytopathic effect
in vitro = settings: monkey, vero cells
influenza virus A = assay: microbe, parasite or virus in culture; assay type: cell-based; settings: 72 hours incubation, 50% inhibition of cytopathic effect; for ID50 Influenza virus-MDCK cell: Table 8; for IC50: unidentified influenza virus, MDCK, 72 h
[4] = Solubility in water and organic solvents; assay type: physicochemical
Vero cell = settings: Table 8; 50% cytotoxicity against Vero cell without viral infection; 4320 min
[5] = test system: human immunodeficiency virus (HIV) LAV/BRU; settings: CEM-F cells; drug amount reducing viral replication by 50%
Description: AZT was included as a reference compound. The methodology used in this assay is described below:
The cells and the virus were grown in LAV/CEM medium. The medium consists of RPMI 1640, supplemented with 1% L-glutamine, 100 U/ml of Penicillin, 100 μg/ml Streptomycin, 2 μg/ml Polybrene and 10% heat-inactivated fetal bovine serum (HyClone Labs). […] The virus was adapted to CEM cells, and infectious virus stocks were stored as cell-free supernatant fluids in 1 ml aliquots in liquid nitrogen. The titer of the stock was determined by an end point titration method using CEM cells in 96-well microtiter plates. The titration was done with ten replicates for each point, and the 50% tissue culture infective dose (TCID50) was calculated using the method of Reed and Muench (Amer. J. Hygiene, 27/3 (1938) 493-497).
The CEM cells (1.5×10^5 cells/ml) were placed in 96-well plates and incubated with virus for 45 minutes. After 45 minutes each compound was added in quadruplicate. At the end of the day, six supernatants were tested for presence of viral core protein p24gag in an antigen capture ELISA (Genetic Systems Company). The OD readings (absorbance at 450/630 nm) fall into three categories: Experimentals=values from wells containing cells, viral inoculum and drug; Controls=values from wells with cells and virus (100%); and Background=values from wells with viral inoculum alone. […]

[6] = test system: Madin Darby canine kidney (MDCK) cell; assay: Drug-induced cytotoxicity against MDCK cells without viral infection (dye-uptake assay); settings: Table 8; 50% cytotoxicity against MDCK cell without viral infection; 4320 min
[7] = as above; settings: dog, mdck cells, TD50 Influenza virus-MDCK cell
HIV antigen = assay: Expression of HIV antigen in infected MT-4 cells by immunofluorescence; assay type: cell-based
Description: Expression of HIV antigen was examined by immunofluorescence. When MT-4 cells were infected with HIV, viral antigen positive cells increased with incubation time and all the cells became positive on day 6 after infection.

[8] = test system: reverse transcriptase (RTase) derived from avian myeloblastosis virus (AMV); assay type: biochemical

| Compound | TD50 (thymidine incorporation) (uninfected CEM cells) | ID50 HSV-Vero cell [3] | ID50 Influenza virus-MDCK cell (influenza virus A) | Solubility in acetone [4] | Solubility in dimethylformamide and dimethyl sulfoxide [4] | Solubility in methanol [4] | Solubility in other organic solvents [4] | Solubility in water [4] | TD50 HSV-Vero cell (Vero cell) | ED50 (p24gag antigen capture assay) [5] | TD50 Influenza virus-MDCK cell [6] | also measured |
| --- | --- | --- | --- | --- | --- | --- | --- | --- | --- | --- | --- | --- |
| Cc1cn([C@H]2C[C@H](N=[N+]=[N-])[C@@H](CO)O2)c(=O)[nH]c1=O [AZT] | 4.2 µg | – | – | – | – | – | – | – | – | – | – | EC50 [1]: 0.005 µg/mL (≈ 0.0187 µM); CC50 at 144 h [2]: > 500 µg/mL |
| Nc1nc2c(ncn2COCCO)c(=O)[nH]1 [Acyclovir] | – | – | – | – | – | – | – | – | – | – | – | IC50 ([3]; Human alphaherpesvirus 1, Vero, 72 h, read-out: ID50 HSV-Vero cell): 0.09 µg/mL (≈ 0.4 µM); CC50 at 72 h (in vitro): > 100 µg/mL |
| C/C1=C\C=C\C2C=C(CO[C@H]3O[C@H](CO)[C@H](O)[C@H](O)[C@H]3O)C(C)CC23OC(O)C(C3=O)C(O)/C=C/C2(C)C=C(CO)C(C)CC23OC(O)C(C3=O)C(O)/C(C)=C/C=C/C2(C)C=C(CO[C@H]3O[C@H](CO)[C@H](O)[C@H](O)[C@H]3O)C(C)CC23OC(O)C(C3=O)C(O)/C=C/C2(C)C=C(C=O)C(C)CC23OC(O)C(C3=O)C1O (stereo partly shown) | > 100 µg | 11 µg/mL (≈ 7.29 µM) | > 150 µg/mL | slightly soluble | soluble | slightly soluble | practically insoluble | soluble | > 200 µg/mL | 2.5 µg | 150 µg/mL | – |
| NC(=O)c1ncn([C@@H]2O[C@H](CO)[C@@H](O)[C@H]2O)n1 [Ribavirin, reference compound] | – | – | – | – | – | – | – | – | – | – | – | IC50 (influenza virus A; read-out: ID50 Influenza virus-MDCK cell, Table 8): 15 µg/mL (≈ 61.4 µM); IC50 (influenza virus A; read-out: ID50 Influenza virus-MDCK cell, Table 10): 9.5 µg/mL (≈ 38.9 µM); CC50 at 72 h ([7]; Table 8, 50% cytotoxicity against MDCK cell without viral infection): > 200 µg/mL; CC50 at 72 h ([7]; Table 10, 50% cytotoxicity against MDCK cells without viral infection): > 100 µg/mL |
| C/C1=C\C=C\C2(C)C=C(CO[C@H]3O[C@H](CO)[C@H](O)[C@H](O)[C@H]3O)C(C)CC23OC(O)C(C3=O)C(O)/C=C/C2(C)C=C(C=O)C(C)CC23OC(O)C(C3=O)C(O)/C(C)=C/C=C/C2C=C(CO[C@H]3O[C@H](CO)[C@H](O)[C@H](O)[C@H]3O)C(C)CC23OC(O)C(C3=O)C(O)/C=C/C2(C)C=C(C=O)C(C)CC23OC(O)C(C3=O)C1O (stereo partly shown) | > 100 µg | 11 µg/mL (≈ 7.3 µM) | 150 µg/mL (≈ 99.5 µM) | slightly soluble | soluble | slightly soluble | practically insoluble | soluble | > 400 µg/mL | 3.2 µg | 250 µg/mL | HIV antigen positive cells (suppression) (HIV antigen; HIV-infected MT-4 cells cultured in the presence of compound): significantly suppressed; HIV antigen positive cells (HIV antigen; HIV-infected MT-4 cells, concentration higher than 50 μg/ml, FIG. 10): less than 1%; AMV reverse transcriptase % inhibition ([8]; 3 μg/ml): 96.9%; AMV reverse transcriptase activity, count ([8]; 3 μg/ml): 1,584 ± 1,292 cpm; AMV reverse transcriptase % inhibition ([8]; 6 μg/ml): 98.1%; AMV reverse transcriptase activity, count ([8]; 6 μg/ml): 976 ± 145 cpm; AMV reverse transcriptase % inhibition ([8]; 12.5 μg/ml): 98.2%; AMV reverse transcriptase activity, count ([8]; 12.5 μg/ml): 920 ± 271 cpm; AMV reverse transcriptase % inhibition ([8]; 25 μg/ml): 98.8%; AMV reverse transcriptase activity, count ([8]; 25 μg/ml): 621 ± 402 cpm; AMV reverse transcriptase % inhibition ([8]; 50 μg/ml): 99.5%; AMV reverse transcriptase activity, count ([8]; 50 μg/ml): 235 ± 73 cpm; AMV reverse transcriptase % inhibition ([8]; 100 μg/ml): 99.7%; AMV reverse transcriptase activity, count ([8]; 100 μg/ml): 159 ± 14 cpm; Inhibition of 1 unit of AMV RTase activity ([8]; concentrations higher than 3 μg/ml): more than 95% |
